Data taken from ChEMBL document CHEMBL1201862, “PubChem BioAssay data set” (2004).
Active and inactive are the calls of the source.

Key:
X-box-binding protein 1 = target: T1, X-box-binding protein 1 (Homo sapiens, UniProt P17861); format: functional, Cricetulus griseus;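 note: confirmatory dose-response counter-screen serving a CHOP assay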
T1 sequence (P17861 whole entry): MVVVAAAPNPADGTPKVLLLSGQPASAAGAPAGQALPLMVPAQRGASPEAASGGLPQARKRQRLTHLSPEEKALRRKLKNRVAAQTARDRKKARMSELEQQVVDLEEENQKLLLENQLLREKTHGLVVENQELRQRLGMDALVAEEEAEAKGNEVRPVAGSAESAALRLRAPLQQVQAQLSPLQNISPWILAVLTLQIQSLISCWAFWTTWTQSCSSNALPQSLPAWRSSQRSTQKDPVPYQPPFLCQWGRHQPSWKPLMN

Hexokinase HKDC1 = target: T2, Hexokinase HKDC1 (Homo sapiens, UniProt Q2TB90); test: inhibition of HKDC1 glucose phosphorylation – biochemical, W721R variant, dose response (AID 504729); format: functional
T2 sequence (Q2TB90 whole entry): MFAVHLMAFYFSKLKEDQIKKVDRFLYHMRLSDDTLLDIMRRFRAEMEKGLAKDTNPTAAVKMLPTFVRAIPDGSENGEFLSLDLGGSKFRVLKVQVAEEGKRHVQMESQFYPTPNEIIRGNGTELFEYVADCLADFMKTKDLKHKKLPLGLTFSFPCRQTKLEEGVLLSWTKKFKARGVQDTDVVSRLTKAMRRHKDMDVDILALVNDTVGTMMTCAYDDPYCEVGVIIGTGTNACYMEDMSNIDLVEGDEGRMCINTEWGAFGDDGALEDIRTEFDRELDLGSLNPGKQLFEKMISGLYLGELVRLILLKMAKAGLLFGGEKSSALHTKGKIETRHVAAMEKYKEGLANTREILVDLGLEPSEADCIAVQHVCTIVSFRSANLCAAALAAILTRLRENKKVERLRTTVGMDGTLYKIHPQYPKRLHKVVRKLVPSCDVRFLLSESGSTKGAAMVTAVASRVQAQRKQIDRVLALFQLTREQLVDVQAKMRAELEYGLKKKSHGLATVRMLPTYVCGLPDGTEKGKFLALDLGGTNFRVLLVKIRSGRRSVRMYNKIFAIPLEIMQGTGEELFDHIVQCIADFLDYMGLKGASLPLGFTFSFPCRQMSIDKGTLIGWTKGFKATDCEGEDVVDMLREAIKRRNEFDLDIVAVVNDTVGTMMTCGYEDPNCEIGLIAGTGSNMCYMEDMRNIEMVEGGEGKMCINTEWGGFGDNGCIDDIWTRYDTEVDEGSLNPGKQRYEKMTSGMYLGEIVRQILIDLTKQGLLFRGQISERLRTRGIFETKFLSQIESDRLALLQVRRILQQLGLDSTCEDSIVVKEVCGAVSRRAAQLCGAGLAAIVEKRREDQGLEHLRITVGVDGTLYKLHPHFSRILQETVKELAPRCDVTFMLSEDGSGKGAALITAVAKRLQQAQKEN

Large T antigen = Large T antigen (Simian virus 40, UniProt P03070); format: functional, Betapolyomavirus macacae;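 note: Confirmatory-stage PubChem screen for compounds that inhibit SV40 T antigen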
[1] = HEK-293T cell viability reduction – luminescence, B-cell screen hits, cytotoxicity control for BCR NF-kB inhibitor project, dose response (AID 489021); format: functional, cell-based;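 note: HEK-293T cells carrying an NF-kB luciferase reporter; cells exposed to compound for about 14 hours before viability readout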
[2] = viability of HCT116 lacking mutant beta-catenin – cell-based, human colon tumor, dose response (AID 1045); format: functional;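 note: HCT116 colon tumor cells with beta catenin knocked out; cells exposed to compound for 60 hours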
[3] = viability of PTEN-deleted HCT116 cells – cell-based, HCT116 PTEN knockout, dose response (AID 1047); format: functional;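 note: HCT116 colon tumor cells with PTEN knocked out; cells exposed to compound for 60 hours before readout; potency for loss of cell viability measured by luminescence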
[4] = target: DNA dC->dU-editing enzyme APOBEC-3G (Homo sapiens, UniProt Q9HC16); format: functional;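 note: Dose-response counterscreen measuring inhibition of APOBEC3G DNA deaminase activity, run while confirming APOBEC3A inhibitors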
[5] = target: DNA dC->dU-editing enzyme APOBEC-3A (Homo sapiens, UniProt P31941); test: Dose Response confirmation of small molecule APOBEC3A DNA Deaminase Inhibitors via a fluorescence-based single-stranded DNA deaminase assay. [Related pubchem assays (depositor defined):AID493011, AID493024]; format: functional
[6] = target: Polyadenylate-binding protein 1 (Homo sapiens, UniProt P11940); test: blockers of PABP interaction with poly(A) – biochemical, fluorescence polarization, […] (AID 2014)
[7] = target: Eukaryotic translation initiation factor 4H (Homo sapiens, UniProt Q15056); test: eIF4H binding inhibition – biochemical, uHTS, fluorescence polarization, translation initiation inhibitor project, primary screen (AID 2012)
Beta-galactosidase = Beta-galactosidase (Escherichia coli, UniProt Q8VNN2); test: detection-enzyme interference by beta-gal modulators – biochemical, E. coli enzyme, set 3, artefact control for CCR6 antagonist project, dose response (AID 504712); format: functional
[8] = target: T3, C-C chemokine receptor type 6 (Homo sapiens, UniProt P51684); test: antagonism of CCR6 beta-arrestin recruitment – cell-based, luminescent beta-arrestin readout, dose response (AID 504728); format: functional
T3 sequence (P51684 whole entry): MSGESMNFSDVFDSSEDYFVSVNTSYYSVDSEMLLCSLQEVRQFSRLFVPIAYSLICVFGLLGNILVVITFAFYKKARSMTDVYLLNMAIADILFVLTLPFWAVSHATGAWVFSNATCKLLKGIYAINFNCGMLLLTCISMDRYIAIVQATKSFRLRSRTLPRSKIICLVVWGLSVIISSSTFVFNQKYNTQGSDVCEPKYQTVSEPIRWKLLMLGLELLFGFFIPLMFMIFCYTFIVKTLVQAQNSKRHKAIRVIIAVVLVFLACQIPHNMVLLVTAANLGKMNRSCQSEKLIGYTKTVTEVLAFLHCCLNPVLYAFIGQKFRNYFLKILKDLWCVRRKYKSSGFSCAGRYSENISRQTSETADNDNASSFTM

[9] = Luminescence Cell-Based Dose Retest to Confirm Inhibitors of Cancer Stem Cells. [Related pubchem assays (depositor defined):AID2717, AID2721]; format: functional; conditions: Homo sapiens
INS1 = test: INS-1E survival protection against cytokine death – cell-based, luminescence, retest, dose response (AID 449756); format: functional; conditions: Rattus norvegicus;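 note: cell death triggered by IL-1 beta plus TNF-alpha plus IFN-gamma mixture; protective hits raise ATP signal compared with cytokine alone wells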
[10] = target: T4, Neuropeptide Y receptor type 1 (Homo sapiens, UniProt P25929); test: Fluorescence-based counterscreen for agonists of NPY-Y2: cell-based high-throughput dose response assay for agonists of NPY-Y1.; format: functional
T4 sequence (P25929 whole entry): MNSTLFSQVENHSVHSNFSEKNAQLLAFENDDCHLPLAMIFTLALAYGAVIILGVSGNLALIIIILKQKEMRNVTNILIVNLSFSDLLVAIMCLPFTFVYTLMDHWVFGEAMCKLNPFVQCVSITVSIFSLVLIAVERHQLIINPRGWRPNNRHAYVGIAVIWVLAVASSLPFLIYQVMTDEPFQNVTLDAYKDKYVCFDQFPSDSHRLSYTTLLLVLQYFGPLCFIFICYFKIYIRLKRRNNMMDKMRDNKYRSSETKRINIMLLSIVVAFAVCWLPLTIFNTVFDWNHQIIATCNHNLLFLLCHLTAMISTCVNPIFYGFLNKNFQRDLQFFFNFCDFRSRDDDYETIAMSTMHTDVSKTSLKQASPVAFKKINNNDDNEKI

[11] = target: T5, Neuropeptide Y receptor type 2 (Homo sapiens, UniProt P49146); test: Fluorescence-based cell-based high-throughput dose response assay for agonists of NPY-Y2. [Related pubchem assays: 1703 (Screening assay (CNGC inhibitors).), 1359 (Screening assay (NPY-Y2 potentiators or agonists).), 1304 (Screening assay (NPY-Y1 potentiators or agonists).), 1710 (Screening assay (NPY-Y2 agonists).), 1791 (Summary AID.)]; format: functional
T5 sequence (P49146 whole entry): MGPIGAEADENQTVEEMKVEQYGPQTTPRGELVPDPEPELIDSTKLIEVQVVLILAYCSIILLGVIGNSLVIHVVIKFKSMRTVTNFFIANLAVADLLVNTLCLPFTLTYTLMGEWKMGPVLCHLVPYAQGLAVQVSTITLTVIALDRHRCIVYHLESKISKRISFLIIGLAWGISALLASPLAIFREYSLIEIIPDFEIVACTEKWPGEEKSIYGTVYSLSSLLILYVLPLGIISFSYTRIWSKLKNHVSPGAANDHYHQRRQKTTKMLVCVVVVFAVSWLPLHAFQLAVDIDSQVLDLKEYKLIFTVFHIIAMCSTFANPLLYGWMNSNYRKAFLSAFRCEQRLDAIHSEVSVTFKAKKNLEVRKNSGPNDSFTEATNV

HEK293 = test: Fluorescence-based counterscreen for potentiators or agonists of NPY-Y2: cell-based high-throughput dose response assay to identify inhibitors of cyclic nucleotide gated ion channel (CNGC) activity. In this assay, the parental HEK293 cell line transfected with a cyclic-nucleotide gated ion channel (CNGC)-based cAMP sensor is used to measure inhibition of isoproterenol-induced CNGC activity by test compound.; format: functional; conditions: Homo sapiens;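 note: stimulus is 1 µM isoproterenol at EC100 plus PDE inhibitor Ro 20-1724 at 25 µM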
cells [12] = format: functional, cell-based
Nonstructural protein 1 = Nonstructural protein 1 (Influenza A virus, UniProt Q194T2); format: functional, Influenza A virus (A/California/07/2009(H1N1))
[13] = target: Heat shock protein HSP 90-alpha (Homo sapiens, UniProt P07900); format: functional, organism-based
cells [14] = format: functional, cell-based; remark: listed apart in the source
[15] = target: Disintegrin and metalloproteinase domain-containing protein 17 (Homo sapiens, UniProt P78536); test: inhibition of ADAM17 substrate cleavage – biochemical, quenched FRET substrate, counter-screen for ADAM10 exosite inhibitor project, dose response (AID 743253)
Streptococcus = test: GAS UMAA2166 growth inhibition – luminescence, BacTiterGlo, counter-screen for streptokinase expression inhibitor project, dose response (AID 1915); format: functional, organism-based;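 note: potency for reduction of bacterial viability or growth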
Streptokinase A = target: T6, Streptokinase A (Streptococcus pyogenes serotype M1, UniProt P10520); test: viability-normalized secreted streptokinase activity reduction – plasminogen activation absorbance, OD405, dose response (AID 1914); format: functional, Streptococcus pyogenes M1 GAS;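 note: secreted streptokinase activity via plasminogen activation per viability signal from cell pellet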
T6 sequence (P10520 whole entry): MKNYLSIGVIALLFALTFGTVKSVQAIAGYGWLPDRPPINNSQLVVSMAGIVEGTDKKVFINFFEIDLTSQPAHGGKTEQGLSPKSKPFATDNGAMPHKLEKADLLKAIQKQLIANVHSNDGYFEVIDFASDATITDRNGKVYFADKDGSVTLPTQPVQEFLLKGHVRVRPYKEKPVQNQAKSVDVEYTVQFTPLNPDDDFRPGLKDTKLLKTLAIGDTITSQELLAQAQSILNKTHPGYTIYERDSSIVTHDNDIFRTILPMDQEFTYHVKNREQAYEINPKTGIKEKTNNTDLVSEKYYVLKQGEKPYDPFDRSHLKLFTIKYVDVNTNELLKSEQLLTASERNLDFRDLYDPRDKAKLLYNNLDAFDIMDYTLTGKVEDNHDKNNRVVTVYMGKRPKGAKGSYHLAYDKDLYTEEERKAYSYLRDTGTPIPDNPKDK

[16] = system: Streptococcus sp. 'group A'; test: Streptococcus pyogenes SK(-)GAS viability under kanamycin – luminescence, BacTiterGlo, confirmation, counter-screen for streptokinase expression inhibitor project, dose response (AID 1900); format: functional, organism-based
Cytochrome P450 2C9 = Cytochrome P450 2C9 (Homo sapiens, UniProt P11712)
Cytochrome P450 2C19 = Cytochrome P450 2C19 (Homo sapiens, UniProt P33261); test: Cytochrome panel assay with activity outcomes. Panel member name: p450-cyp2c19 Compounds with AC50 equal or less than 10 uM are considered active; format: functional
Sequence of Cytochrome P450 2C19 (P33261 whole entry): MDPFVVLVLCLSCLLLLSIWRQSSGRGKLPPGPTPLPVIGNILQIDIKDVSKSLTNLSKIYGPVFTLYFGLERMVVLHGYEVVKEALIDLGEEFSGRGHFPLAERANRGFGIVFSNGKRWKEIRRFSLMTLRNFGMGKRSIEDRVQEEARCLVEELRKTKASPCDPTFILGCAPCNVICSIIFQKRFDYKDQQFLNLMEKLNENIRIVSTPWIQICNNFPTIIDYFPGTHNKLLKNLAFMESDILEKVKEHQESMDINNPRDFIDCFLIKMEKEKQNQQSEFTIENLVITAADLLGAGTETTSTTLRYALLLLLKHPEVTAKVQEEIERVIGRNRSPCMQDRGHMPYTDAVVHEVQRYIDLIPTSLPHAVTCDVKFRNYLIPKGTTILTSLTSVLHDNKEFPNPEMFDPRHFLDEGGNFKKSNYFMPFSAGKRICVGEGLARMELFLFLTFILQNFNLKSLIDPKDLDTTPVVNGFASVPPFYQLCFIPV

Sequence of Beta-galactosidase (Q8VNN2 whole entry): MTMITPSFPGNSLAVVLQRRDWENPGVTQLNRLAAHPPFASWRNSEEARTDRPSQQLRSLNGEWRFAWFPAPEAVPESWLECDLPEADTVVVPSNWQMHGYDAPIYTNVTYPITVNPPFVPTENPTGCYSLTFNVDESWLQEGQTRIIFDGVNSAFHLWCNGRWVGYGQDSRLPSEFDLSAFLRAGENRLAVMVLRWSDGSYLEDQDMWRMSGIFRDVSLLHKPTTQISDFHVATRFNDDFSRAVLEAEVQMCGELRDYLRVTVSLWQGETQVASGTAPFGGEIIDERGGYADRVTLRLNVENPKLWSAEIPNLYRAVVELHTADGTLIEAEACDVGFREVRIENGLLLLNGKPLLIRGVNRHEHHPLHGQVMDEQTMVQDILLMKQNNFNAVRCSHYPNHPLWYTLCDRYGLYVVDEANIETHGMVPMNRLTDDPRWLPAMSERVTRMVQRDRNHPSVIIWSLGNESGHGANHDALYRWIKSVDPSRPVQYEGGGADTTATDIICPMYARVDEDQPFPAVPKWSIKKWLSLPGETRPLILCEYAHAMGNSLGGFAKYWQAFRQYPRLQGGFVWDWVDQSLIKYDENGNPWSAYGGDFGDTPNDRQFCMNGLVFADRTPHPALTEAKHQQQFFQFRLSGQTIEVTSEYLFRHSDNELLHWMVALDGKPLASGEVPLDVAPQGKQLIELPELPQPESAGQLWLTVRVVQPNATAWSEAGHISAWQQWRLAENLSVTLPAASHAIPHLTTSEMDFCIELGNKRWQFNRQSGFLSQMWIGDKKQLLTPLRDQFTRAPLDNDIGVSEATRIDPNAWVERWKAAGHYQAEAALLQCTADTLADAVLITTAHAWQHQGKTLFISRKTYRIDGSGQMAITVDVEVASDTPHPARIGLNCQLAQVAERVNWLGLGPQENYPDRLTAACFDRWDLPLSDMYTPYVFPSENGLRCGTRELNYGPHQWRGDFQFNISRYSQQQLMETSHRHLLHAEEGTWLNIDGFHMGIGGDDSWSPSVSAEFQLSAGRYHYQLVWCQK
Sequence of DNA dC->dU-editing enzyme APOBEC-3A (P31941 whole entry): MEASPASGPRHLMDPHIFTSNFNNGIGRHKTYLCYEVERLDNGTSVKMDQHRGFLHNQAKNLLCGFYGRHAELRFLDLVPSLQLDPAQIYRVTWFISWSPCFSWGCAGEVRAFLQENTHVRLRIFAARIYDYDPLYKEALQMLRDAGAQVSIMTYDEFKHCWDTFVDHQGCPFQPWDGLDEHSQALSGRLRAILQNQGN
Sequence of DNA dC->dU-editing enzyme APOBEC-3G (Q9HC16 whole entry): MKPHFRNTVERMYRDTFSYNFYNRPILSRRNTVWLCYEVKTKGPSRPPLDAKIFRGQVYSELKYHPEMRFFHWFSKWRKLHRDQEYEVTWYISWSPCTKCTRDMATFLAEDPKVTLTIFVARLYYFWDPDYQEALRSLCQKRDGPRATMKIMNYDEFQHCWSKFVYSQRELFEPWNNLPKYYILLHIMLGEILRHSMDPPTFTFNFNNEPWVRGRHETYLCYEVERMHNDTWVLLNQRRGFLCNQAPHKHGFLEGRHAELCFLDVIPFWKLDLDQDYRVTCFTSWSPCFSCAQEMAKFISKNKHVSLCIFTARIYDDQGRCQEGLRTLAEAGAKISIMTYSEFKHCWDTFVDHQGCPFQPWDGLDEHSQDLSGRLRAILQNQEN
Sequence of Nonstructural protein 1 (Q194T2 whole entry): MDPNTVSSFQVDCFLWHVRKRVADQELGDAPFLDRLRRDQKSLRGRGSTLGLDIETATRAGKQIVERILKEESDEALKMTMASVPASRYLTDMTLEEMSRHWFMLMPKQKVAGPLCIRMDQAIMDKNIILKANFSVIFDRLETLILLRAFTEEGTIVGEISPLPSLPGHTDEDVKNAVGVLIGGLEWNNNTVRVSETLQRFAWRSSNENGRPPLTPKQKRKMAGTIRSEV
Sequence of Cytochrome P450 2C9 (P11712 whole entry): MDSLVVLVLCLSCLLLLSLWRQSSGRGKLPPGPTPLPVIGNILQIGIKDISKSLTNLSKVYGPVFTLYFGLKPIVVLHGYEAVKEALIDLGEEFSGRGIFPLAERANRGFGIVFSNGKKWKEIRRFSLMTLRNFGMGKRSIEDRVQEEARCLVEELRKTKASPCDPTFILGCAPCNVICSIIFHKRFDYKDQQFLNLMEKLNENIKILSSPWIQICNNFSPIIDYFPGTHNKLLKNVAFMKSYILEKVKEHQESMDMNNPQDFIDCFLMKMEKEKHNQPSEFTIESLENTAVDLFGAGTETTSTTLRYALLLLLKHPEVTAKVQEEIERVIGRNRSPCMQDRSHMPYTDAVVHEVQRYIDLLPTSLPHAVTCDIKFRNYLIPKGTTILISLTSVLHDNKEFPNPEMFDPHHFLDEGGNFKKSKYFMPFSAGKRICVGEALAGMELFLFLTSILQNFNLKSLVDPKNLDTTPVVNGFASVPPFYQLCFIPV
Sequence of Polyadenylate-binding protein 1 (P11940 whole entry): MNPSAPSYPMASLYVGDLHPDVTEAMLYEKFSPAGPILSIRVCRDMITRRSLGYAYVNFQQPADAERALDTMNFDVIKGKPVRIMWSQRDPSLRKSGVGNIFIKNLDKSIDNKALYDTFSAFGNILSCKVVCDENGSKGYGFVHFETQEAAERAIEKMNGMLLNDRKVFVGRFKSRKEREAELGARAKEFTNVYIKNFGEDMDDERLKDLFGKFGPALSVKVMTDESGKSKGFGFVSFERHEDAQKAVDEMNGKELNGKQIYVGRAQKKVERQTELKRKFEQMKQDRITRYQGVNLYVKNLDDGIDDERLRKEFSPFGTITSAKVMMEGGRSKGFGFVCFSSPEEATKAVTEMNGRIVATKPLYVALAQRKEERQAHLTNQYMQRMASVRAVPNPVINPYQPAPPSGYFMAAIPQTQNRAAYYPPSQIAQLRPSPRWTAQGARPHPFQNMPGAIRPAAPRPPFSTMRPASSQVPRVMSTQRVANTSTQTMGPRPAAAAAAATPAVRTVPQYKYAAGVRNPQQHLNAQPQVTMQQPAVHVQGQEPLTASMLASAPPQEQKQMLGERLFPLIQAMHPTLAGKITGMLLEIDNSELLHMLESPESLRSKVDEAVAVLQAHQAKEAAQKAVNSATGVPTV
Sequence of Large T antigen (P03070 whole entry): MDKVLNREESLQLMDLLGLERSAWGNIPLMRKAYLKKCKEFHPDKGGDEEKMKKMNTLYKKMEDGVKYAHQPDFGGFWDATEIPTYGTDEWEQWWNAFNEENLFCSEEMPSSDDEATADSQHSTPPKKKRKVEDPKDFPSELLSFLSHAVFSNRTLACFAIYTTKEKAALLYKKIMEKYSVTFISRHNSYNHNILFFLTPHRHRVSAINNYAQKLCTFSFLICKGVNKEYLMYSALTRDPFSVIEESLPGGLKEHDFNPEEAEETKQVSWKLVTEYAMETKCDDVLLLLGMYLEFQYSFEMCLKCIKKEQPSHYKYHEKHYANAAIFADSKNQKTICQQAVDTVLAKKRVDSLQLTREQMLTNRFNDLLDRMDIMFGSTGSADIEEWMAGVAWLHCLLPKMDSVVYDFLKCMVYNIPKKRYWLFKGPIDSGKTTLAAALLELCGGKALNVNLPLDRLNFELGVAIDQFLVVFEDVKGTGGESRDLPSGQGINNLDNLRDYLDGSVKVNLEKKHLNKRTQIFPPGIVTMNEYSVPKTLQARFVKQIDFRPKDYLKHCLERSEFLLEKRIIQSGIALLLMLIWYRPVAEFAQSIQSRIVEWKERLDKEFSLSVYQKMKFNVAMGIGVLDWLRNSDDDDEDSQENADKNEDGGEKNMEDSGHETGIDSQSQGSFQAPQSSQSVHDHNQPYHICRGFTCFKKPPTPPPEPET

Structure (SMILES): COC(=O)/C(=C(/F)Sc1cc(C)c(O)c(C)c1)C(F)(F)F
- Absolute IC50 (XBP1) (X-box-binding protein 1): 10 µM

Structure (SMILES): CC[C@H](C)/C=C(C)/C=C/C1=CC2=C(Cl)C(=O)[C@@](C)(OC(C)=O)C(=O)C2=CO1
- IC50 (Hexokinase HKDC1): 16.8 µM (active)
- IC50 (Large T antigen): 30.4 µM (active)

Structure (SMILES): CCn1c(=O)c2cc(C(=O)NCc3cccs3)sc2c2ccccc21
- IC50 [1]: > 80 µM (inactive)

Structure (SMILES): Nc1c(N(C(=O)Nc2ccc(Cl)c(Cl)c2)C2CCCC2)c(=O)[nH]c(=O)n1Cc1ccccc1
- EC50 [2]: 15.3 µM (active)
- EC50 [3]: 15.5 µM (active)
- Absolute IC50 (XBP1) (X-box-binding protein 1): 10 µM

Structure (SMILES): C[n+]1ccc(-c2ccncc2)cc1
- IC50 [4]: 2.53 µM (active)
- IC50 [5]: 2.02 µM (active)
- IC50 [6]: 7.33 µM (active)
- IC50 [7]: 82.2 µM (active)

Structure (SMILES): CN(CC(=O)Nc1ccc(OC(F)F)cc1)S(=O)(=O)/C=C/c1ccccc1
- IC50 (Beta-galactosidase): > 66.6 µM (inactive)
- IC50 [8]: > 66.6 µM (inactive)

Structure (SMILES): Cc1ccc(S(=O)(=O)Nc2ccc(NC(=O)Nc3cccc(C(F)(F)F)c3)cc2)cc1
- EC50 [2]: 12.9 µM (active)
- EC50 [3]: 9.49 µM (active)
- AC50 [9]: 1.36 µM (active)
- Absolute IC50 (XBP1) (X-box-binding protein 1): 10 µM
- AC50 (INS1): 8.16 µM (active)

Structure (SMILES): COc1ccc(C(=O)Nc2ccc(OC)c([N+](=O)[O-])c2)cc1Br
- IC50 [1]: > 80 µM (inactive)

Structure (SMILES): CCOC(=O)c1ccc(-n2c(=S)sc3c(O)nc(C)nc32)cc1
- EC50 [10]: > 35.4 µM (not active)
- EC50 [11]: > 35.4 µM (not active)
- EC50 (HEK293): > 35.4 µM (not active)

Structure (SMILES): O=[N+]([O-])c1ccc(O)c(/C=N/Nc2ccccn2)c1
- IC50 (Beta-galactosidase): > 66.6 µM (inactive)
- EC50 (cells [12]): > 350 µM (not active)
- IC50 (Nonstructural protein 1): 7.05 µM (active)
- AC50 [13]: 3.97 µM (active)
- EC50 (cells [14]): > 350 µM (not active)
- IC50 [15]: 9.75 µM (active)
- IC50 [8]: > 66.6 µM (inactive)
- AC50 (INS1): 0.342 µM (active)

Structure (SMILES): COCCCN1C(=O)/C(=C\c2nc(C#N)c(Nc3ccc(C)cc3)o2)SC1=S
- EC50 (Streptococcus): > 150 µM (not active)
- EC50 [10]: > 35.4 µM (not active)
- EC50 (Streptokinase A): > 150 µM (not active)
- EC50 [11]: > 35.4 µM (not active)
- EC50 [16]: 108 µM (active)
- EC50 (HEK293): > 35.4 µM (not active)

Structure (SMILES): Cc1ccc(-c2nn3c(C)nnc3c3ccccc23)cc1S(=O)(=O)NCCN1CCOCC1
- IC50 [1]: > 80 µM (inactive)
- AC50 (Cytochrome P450 2C9): 20 µM (inconclusive)
- AC50 (Cytochrome P450 2C19): inconclusive
